From patent publication US8178658B2 (Dow AgroSciences, LLC, priority 2008, dated 2012)

Columns and labels:
[1] = tested on: beet armyworm (BAW; Spodoptera exigua: Lepidoptera); experiment: 96-well microtiter plate-based high throughput (HTS) diet bioassay on beet armyworm (BAW HTS); type: in vivo; conditions: BAW eggs, 12 μg test compound per well, mortality at 6 d post-treatment, mortality class
Method in brief: (§1)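 Two diet formats. HTS: eggs on 96-well diet overlaid with 12 μg compound, held 6 d at 29° C in dark, mean mortality of six replicates. BAW 50: three to five second-instar larvae per well on diet dosed at 50 μg/cm^2, held six days at 25° C under 14:10 light-dark, mortality averaged across eight wells.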

[2] = tested on: beet armyworm (BAW; Spodoptera exigua: Lepidoptera); experiment: 128-well diet tray assay on beet armyworm (BAW 50); type: in vivo; conditions: 128-well diet tray assay; 50 μg/cm^2 of test compound on diet; second instar BAW larvae; mortality class
Method in brief: as §1

[3] = 96-well microtiter plate HTS diet assay

SMILES: CCOC1C(OC)C(C)OC(ON=Cc2ccc(-c3ncc(-c4cccc(OC(F)(F)F)c4)cn3)cc2)C1OC (stereo not drawn) [Compound 143]
- BAW HTS ([1]; 96-well HTS diet assay): B (either (1) the compound was tested and less than 50 percent mortality was observed or (2) the compound was not tested)
- BAW HTS [1, 3]: B (either (1) the compound was tested and less than 50 percent mortality was observed or (2) the compound was not tested)
- BAW 50 ug/cm2 [2]: A (the compound was tested and at least 50 percent mortality was observed)

SMILES: CCCOC1C(OC)C(C)OC(ON=Cc2ccc(-c3ncc(-c4ccc(OC(F)(F)F)cc4)cn3)cc2)C1OC (stereo not drawn) [Compound 144]
- BAW HTS ([1]; 96-well HTS diet assay): B (either (1) the compound was tested and less than 50 percent mortality was observed or (2) the compound was not tested)
- BAW HTS [1, 3]: B (either (1) the compound was tested and less than 50 percent mortality was observed or (2) the compound was not tested)
- BAW 50 ug/cm2 [2]: A (the compound was tested and at least 50 percent mortality was observed)

SMILES: CCOC1C(OC)C(C)OC(ON=Cc2cccc(-c3ncc(-c4ccc(OC(F)(F)F)cc4)cn3)c2)C1OC (stereo not drawn) [Compound 146]
- BAW HTS ([1]; 96-well HTS diet assay): B (either (1) the compound was tested and less than 50 percent mortality was observed or (2) the compound was not tested)
- BAW HTS [1, 3]: B (either (1) the compound was tested and less than 50 percent mortality was observed or (2) the compound was not tested)
- BAW 50 ug/cm2 [2]: A (the compound was tested and at least 50 percent mortality was observed)

SMILES: CCOC1C(OC)C(C)OC(ON=Cc2cccc(-c3ncc(-c4ccccc4OC(F)(F)F)cn3)c2)C1OC (stereo not drawn) [Compound 147]
- BAW HTS ([1]; 96-well HTS diet assay): B (either (1) the compound was tested and less than 50 percent mortality was observed or (2) the compound was not tested)
- BAW HTS [1, 3]: B (either (1) the compound was tested and less than 50 percent mortality was observed or (2) the compound was not tested)
- BAW 50 ug/cm2 [2]: B (either (1) the compound was tested and less than 50 percent mortality was observed or (2) the compound was not tested)

SMILES: CCOC1C(OC)C(C)OC(ON=Cc2ccc(-c3ncc(-c4ccc(OC(F)(F)F)cc4)cn3)cc2F)C1OC (stereo not drawn) [Compound 148]
- BAW HTS ([1]; 96-well HTS diet assay): B (either (1) the compound was tested and less than 50 percent mortality was observed or (2) the compound was not tested)
- BAW HTS [1, 3]: B (either (1) the compound was tested and less than 50 percent mortality was observed or (2) the compound was not tested)
- BAW 50 ug/cm2 [2]: A (the compound was tested and at least 50 percent mortality was observed)

SMILES: CCOC1C(OC)C(C)OC(ON=Cc2cccc(-c3ncc(-c4cccc(OC(F)(F)F)c4)cn3)c2)C1OC (stereo not drawn) [Compound 149]
- BAW HTS ([1]; 96-well HTS diet assay): B (either (1) the compound was tested and less than 50 percent mortality was observed or (2) the compound was not tested)
- BAW HTS [1, 3]: B (either (1) the compound was tested and less than 50 percent mortality was observed or (2) the compound was not tested)
- BAW 50 ug/cm2 [2]: A (the compound was tested and at least 50 percent mortality was observed)

SMILES: CCOC1C(OC)C(C)OC(ON=Cc2ccc(-c3ncc(-c4ccc(C)cc4)cn3)cc2)C1OC (stereo not drawn) [Compound 150]
- BAW HTS ([1]; 96-well HTS diet assay): B (either (1) the compound was tested and less than 50 percent mortality was observed or (2) the compound was not tested)
- BAW HTS [1, 3]: B (either (1) the compound was tested and less than 50 percent mortality was observed or (2) the compound was not tested)
- BAW 50 ug/cm2 [2]: B (either (1) the compound was tested and less than 50 percent mortality was observed or (2) the compound was not tested)

SMILES: CCOC1C(OC)C(C)OC(ON=Cc2ccc(-c3ncc(-c4ccc(C(F)(F)F)cc4)cn3)cc2)C1OC (stereo not drawn) [Compound 151]
- BAW HTS ([1]; 96-well HTS diet assay): B (either (1) the compound was tested and less than 50 percent mortality was observed or (2) the compound was not tested)
- BAW HTS [1, 3]: B (either (1) the compound was tested and less than 50 percent mortality was observed or (2) the compound was not tested)
- BAW 50 ug/cm2 [2]: A (the compound was tested and at least 50 percent mortality was observed)

SMILES: CCOC1C(OC)C(C)OC(ON=Cc2ccc(-c3ncc(-c4ccccc4C)cn3)cc2)C1OC (stereo not drawn) [Compound 152]
- BAW HTS ([1]; 96-well HTS diet assay): B (either (1) the compound was tested and less than 50 percent mortality was observed or (2) the compound was not tested)
- BAW HTS [1, 3]: B (either (1) the compound was tested and less than 50 percent mortality was observed or (2) the compound was not tested)
- BAW 50 ug/cm2 [2]: A (the compound was tested and at least 50 percent mortality was observed)

SMILES: CCOC1C(OC)C(C)OC(ON=Cc2ccc(-c3ncc(-c4ccc(F)cc4)cn3)cc2)C1OC (stereo not drawn) [Compound 153]
- BAW HTS ([1]; 96-well HTS diet assay): B (either (1) the compound was tested and less than 50 percent mortality was observed or (2) the compound was not tested)
- BAW HTS [1, 3]: B (either (1) the compound was tested and less than 50 percent mortality was observed or (2) the compound was not tested)
- BAW 50 ug/cm2 [2]: A (the compound was tested and at least 50 percent mortality was observed)

SMILES: CCOC1C(OC)C(C)OC(ON=Cc2ccc(-c3ncc(-c4ccc(C#N)cc4)cn3)cc2)C1OC (stereo not drawn) [Compound 154]
- BAW HTS ([1]; 96-well HTS diet assay): B (either (1) the compound was tested and less than 50 percent mortality was observed or (2) the compound was not tested)
- BAW HTS [1, 3]: B (either (1) the compound was tested and less than 50 percent mortality was observed or (2) the compound was not tested)
- BAW 50 ug/cm2 [2]: A (the compound was tested and at least 50 percent mortality was observed)

SMILES: CCOC1C(OC)C(C)OC(ON=Cc2ccc(-c3ncc(-c4ccccc4OC(F)(F)F)cn3)cc2)C1OC (stereo not drawn) [Compound 156]
- BAW HTS ([1]; 96-well HTS diet assay): B (either (1) the compound was tested and less than 50 percent mortality was observed or (2) the compound was not tested)
- BAW HTS [1, 3]: B (either (1) the compound was tested and less than 50 percent mortality was observed or (2) the compound was not tested)
- BAW 50 ug/cm2 [2]: A (the compound was tested and at least 50 percent mortality was observed)

SMILES: COC1C(C)OC(ON=Cc2ccc(-c3ncnc(-c4ccc(C(F)(F)F)cc4)n3)cc2)C(OC)C1OC (stereo not drawn) [Compound 157]
- BAW HTS ([1]; 96-well HTS diet assay): A (the compound was tested and at least 50 percent mortality was observed)
- BAW HTS [1, 3]: A (the compound was tested and at least 50 percent mortality was observed)
- BAW 50 ug/cm2 [2]: B (either (1) the compound was tested and less than 50 percent mortality was observed or (2) the compound was not tested)

SMILES: COC1C(C)OC(ON=Cc2ccc(-c3ncnc(-c4ccc(OC(F)(F)F)cc4)n3)cc2)C(OC)C1OC (stereo not drawn) [Compound 158]
- BAW HTS ([1]; 96-well HTS diet assay): A (the compound was tested and at least 50 percent mortality was observed)
- BAW HTS [1, 3]: A (the compound was tested and at least 50 percent mortality was observed)
- BAW 50 ug/cm2 [2]: A (the compound was tested and at least 50 percent mortality was observed)

SMILES: COC1C(C)OC(ON=Cc2ccc(-c3cncc(-c4ccc(OC(F)(F)F)cc4)n3)cc2)C(OC)C1OC (stereo not drawn) [Compound 159]
- BAW HTS ([1]; 96-well HTS diet assay): A (the compound was tested and at least 50 percent mortality was observed)
- BAW HTS [1, 3]: A (the compound was tested and at least 50 percent mortality was observed)
- BAW 50 ug/cm2 [2]: A (the compound was tested and at least 50 percent mortality was observed)

SMILES: CCOC1C(OC)C(C)OC(ON=Cc2ccc(N3CCN(c4ccc(OC(F)(F)F)cc4)CC3)nc2)C1OC (stereo not drawn) [Compound 160]
- BAW HTS ([1]; 96-well HTS diet assay): A (the compound was tested and at least 50 percent mortality was observed)
- BAW HTS [1, 3]: A (the compound was tested and at least 50 percent mortality was observed)
- BAW 50 ug/cm2 [2]: A (the compound was tested and at least 50 percent mortality was observed)

SMILES: CCOC1C(OC)C(C)OC(ON=Cc2ccc(N3CCN(c4ccc(C(F)(F)F)cn4)CC3)cc2)C1OC (stereo not drawn) [Compound 161]
- BAW HTS ([1]; 96-well HTS diet assay): A (the compound was tested and at least 50 percent mortality was observed)
- BAW HTS [1, 3]: A (the compound was tested and at least 50 percent mortality was observed)
- BAW 50 ug/cm2 [2]: A (the compound was tested and at least 50 percent mortality was observed)

SMILES: CCCOC1C(OC)C(C)OC(ON=Cc2ccc(N3CCN(c4ccc(OC(F)(F)F)cc4)CC3)cc2)C1OC (stereo not drawn) [Compound 162]
- BAW HTS ([1]; 96-well HTS diet assay): B (either (1) the compound was tested and less than 50 percent mortality was observed or (2) the compound was not tested)
- BAW HTS [1, 3]: B (either (1) the compound was tested and less than 50 percent mortality was observed or (2) the compound was not tested)
- BAW 50 ug/cm2 [2]: A (the compound was tested and at least 50 percent mortality was observed)

SMILES: CCOC1C(OC)C(C)OC(ON=Cc2ccc(-c3ncc(-c4ccc(SC)cc4)cn3)cc2)C1OC (stereo not drawn) [Compound 163]
- BAW HTS ([1]; 96-well HTS diet assay): B (either (1) the compound was tested and less than 50 percent mortality was observed or (2) the compound was not tested)
- BAW HTS [1, 3]: B (either (1) the compound was tested and less than 50 percent mortality was observed or (2) the compound was not tested)
- BAW 50 ug/cm2 [2]: B (either (1) the compound was tested and less than 50 percent mortality was observed or (2) the compound was not tested)

SMILES: COC1C(C)OC(ON=C(C)c2ccc(-c3cn(-c4ccc(OC(F)(F)F)cc4)cn3)s2)C(OC)C1OC (stereo not drawn) [Compound 164]
- BAW HTS ([1]; 96-well HTS diet assay): B (either (1) the compound was tested and less than 50 percent mortality was observed or (2) the compound was not tested)
- BAW HTS [1, 3]: B (either (1) the compound was tested and less than 50 percent mortality was observed or (2) the compound was not tested)
- BAW 50 ug/cm2 [2]: B (either (1) the compound was tested and less than 50 percent mortality was observed or (2) the compound was not tested)

SMILES: COC1C(C)OC(ON=C(C)c2ccc(-c3cn(-c4ccc(OC(F)(F)F)cc4)cn3)cc2)C(OC)C1OC (stereo not drawn) [Compound 165]
- BAW HTS ([1]; 96-well HTS diet assay): B (either (1) the compound was tested and less than 50 percent mortality was observed or (2) the compound was not tested)
- BAW HTS [1, 3]: B (either (1) the compound was tested and less than 50 percent mortality was observed or (2) the compound was not tested)
- BAW 50 ug/cm2 [2]: A (the compound was tested and at least 50 percent mortality was observed)
